Test results published in patent US20190374533A1, “COMPOUNDS AND METHODS FOR INHIBITING NHE-MEDIATED ANTIPORT IN THE TREATMENT OF DISORDERS ASSOCIATED WITH FLUID RETENTION OR SALT OVERLOAD AND GASTROINTESTINAL TRACT DISORDERS” (Ardelyx, Inc., priority 2008, published 2019).

Tested on: not listed separately
Experiment: Determination of compound Cmax and AUC
Assay type: in vivo
Conditions: rat; Sprague-Dawley rats, oral gavage, serum 0.5-4 h; actual oral dose (mg/kg) given
Protocol: Sprague-Dawley rats were orally gavaged with test article (2.5 mg/kg) and serum was collected at 0.5, 1, 2 and 4 h. Serum samples were treated with acetonitrile, precipitated proteins removed by centrifugation and supernatants analyzed by LC/MS/MS and compared against a standard curve to determine compound concentration. All compounds were orally dosed at the dosage shown, and pharmacokinetic parameters determined as described in the text.

SMILES | AUC [ng·h/mL] | Cmax [ng/mL]
CN1Cc2c(Cl)cc(Cl)cc2C(c2ccc(S(=O)(=O)NCCOCCOCCNC(=O)NCCOCCOCCNS(=O)(=O)c3ccc(C4CN(C)Cc5c(Cl)cc(Cl)cc54)cc3)cc2)C1 (stereo not drawn) [Example 232, N,N′-(10-oxo-3,6,14,17-tetraoxa-9,11-diazanonadecane-1,19-diyl)bis(4-(6,8-dichloro-2-methyl-1,2,3,4-tetrahydroisoquinolin-4-yl)benzenesulfonamide)] | < 2 | < 2
CN1Cc2c(Cl)cc(Cl)cc2C(c2ccc(S(=O)(=O)NCCOCCOCCOCCNC(=O)c3ccc(C(=O)NCCOCCOCCOCCNS(=O)(=O)c4ccc(C5CN(C)Cc6c(Cl)cc(Cl)cc65)cc4)cc3)cc2)C1 (stereo not drawn) [Example 233, N1,N4-bis(2-(2-(2-(2-(4-(6,8-dichloro-2-methyl-1,2,3,4-tetrahydroisoquinolin-4-yl)phenylsulfonamido)ethoxy)ethoxy)ethoxy)ethyl)terephthalamide] | < 6.8 | < 2.6

Biological target: T1, rat NHE-3 (Rattus norvegicus, UniProt P26433)
T1 construct: expressed in transfected cells; host or cells: Opossum kidney (OK) cells (ATCC), electroporated
Experiment: Cell-based assay of NHE-3 activity (Pharmacological Test Example 1)
Conditions: not given
Outline: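 Na+-dependent H+ exchange tracked with the pH-sensitive dye BCECF in opossum kidney cells transiently expressing rat NHE-3. Intracellular acidification by NH4Cl prepulse, then 10 min in ammonium- and Na+-free HEPES, pH 7.4, room temperature. Initial rates averaged over 3-6 replicates give pIC50.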

T1 sequence (P26433 29-831): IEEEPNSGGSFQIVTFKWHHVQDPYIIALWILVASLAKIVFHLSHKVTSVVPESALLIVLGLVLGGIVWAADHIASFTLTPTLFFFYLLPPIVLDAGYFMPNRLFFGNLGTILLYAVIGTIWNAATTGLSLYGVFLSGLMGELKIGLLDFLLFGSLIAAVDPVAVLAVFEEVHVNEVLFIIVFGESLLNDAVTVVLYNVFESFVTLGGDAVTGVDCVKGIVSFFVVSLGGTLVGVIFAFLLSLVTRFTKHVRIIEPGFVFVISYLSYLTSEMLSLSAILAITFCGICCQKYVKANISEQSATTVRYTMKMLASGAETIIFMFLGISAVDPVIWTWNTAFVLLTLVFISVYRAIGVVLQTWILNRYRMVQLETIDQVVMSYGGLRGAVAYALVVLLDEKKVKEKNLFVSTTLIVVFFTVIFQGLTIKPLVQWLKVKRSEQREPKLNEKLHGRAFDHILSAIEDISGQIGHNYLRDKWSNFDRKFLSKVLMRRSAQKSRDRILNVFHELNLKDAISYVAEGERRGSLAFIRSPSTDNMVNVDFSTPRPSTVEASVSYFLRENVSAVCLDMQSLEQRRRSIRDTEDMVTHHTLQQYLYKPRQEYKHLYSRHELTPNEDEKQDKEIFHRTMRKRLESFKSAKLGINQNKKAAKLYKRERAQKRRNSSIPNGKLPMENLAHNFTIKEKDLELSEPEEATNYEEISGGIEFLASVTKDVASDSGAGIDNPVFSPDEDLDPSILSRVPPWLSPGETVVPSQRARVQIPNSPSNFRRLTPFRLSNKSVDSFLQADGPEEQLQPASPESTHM

SMILES | rat NHE-3 Average pIC50
CN1Cc2c(Cl)cc(Cl)cc2C(c2ccc(S(=O)(=O)NCCOCCOCCNC(=O)NCCOCCOCCNS(=O)(=O)c3ccc(C4CN(C)Cc5c(Cl)cc(Cl)cc54)cc3)cc2)C1 (stereo not drawn) [Example 232, N,N′-(10-oxo-3,6,14,17-tetraoxa-9,11-diazanonadecane-1,19-diyl)bis(4-(6,8-dichloro-2-methyl-1,2,3,4-tetrahydroisoquinolin-4-yl)benzenesulfonamide)] | <5.0
CN1Cc2c(Cl)cc(Cl)cc2C(c2ccc(S(=O)(=O)NCCOCCOCCOCCNC(=O)c3ccc(C(=O)NCCOCCOCCOCCNS(=O)(=O)c4ccc(C5CN(C)Cc6c(Cl)cc(Cl)cc65)cc4)cc3)cc2)C1 (stereo not drawn) [Example 233, N1,N4-bis(2-(2-(2-(2-(4-(6,8-dichloro-2-methyl-1,2,3,4-tetrahydroisoquinolin-4-yl)phenylsulfonamido)ethoxy)ethoxy)ethoxy)ethyl)terephthalamide] | <5.0

Tested on: not listed separately
Experiment: Parallel artificial membrane permeability assay (PAMPA)
Conditions: pH 7.4

SMILES | Papp A→B at 3 h, 20 uM [×10⁻⁶ cm/s]
CN1Cc2c(Cl)cc(Cl)cc2C(c2cccc(S(=O)(=O)Nc3ccc(CP(=O)(O)O)cc3)c2)C1 (stereo not drawn) [Example 3, 4-(3-(6,8-dichloro-2-methyl-1,2,3,4-tetrahydroisoquinolin-4-yl)phenylsulfonamido)benzylphosphonic acid] | 0.8
CN1Cc2c(Cl)cc(Cl)cc2C(c2cccc(S(=O)(=O)NCCCS(=O)(=O)O)c2)C1 (stereo not drawn) [Example 7, 3-(3-(6,8-dichloro-2-methyl-1,2,3,4-tetrahydroisoquinolin-4-yl)phenylsulfonamido)propane-1-sulfonic acid] | 0.5
CN1Cc2c(Cl)cc(Cl)cc2C(c2cccc(S(=O)(=O)N(CC(=O)O)CP(=O)(O)O)c2)C1 (stereo not drawn) [Example 8, 2-(3-(6,8-dichloro-2-methyl-1,2,3,4-tetrahydroisoquinolin-4-yl)-N-(phosphonomethyl)phenylsulfonamido)acetic acid] | 0.2
CN1Cc2c(Cl)cc(Cl)cc2C(c2ccc(S(=O)(=O)N(CCC(=O)O)CCC(=O)O)cc2)C1 (stereo not drawn) [Example 15, 3,3′-(4-(6,8-dichloro-2-methyl-1,2,3,4-tetrahydroisoquinolin-4-yl)phenylsulfonylazanediyl)dipropanoic acid] | 0.05
CN1Cc2c(Cl)cc(Cl)cc2C(c2ccc(NC(=O)N[C@@H](CC(=O)O)C(=O)O)cc2)C1 (stereo partly drawn) [Example 34, (2S)-2-(3-(4-(6,8-dichloro-2-methyl-1,2,3,4-tetrahydroisoquinolin-4-yl)phenyl)ureido)succinic acid] | 0.2
CN1Cc2c(Cl)cc(Cl)cc2C(c2cccc(NC(=O)N[C@@H](CC(=O)O)C(=O)O)c2)C1 (stereo partly drawn) [Example 35, (2S)-2-(3-(3-(6,8-dichloro-2-methyl-1,2,3,4-tetrahydroisoquinolin-4-yl)phenyl)ureido)succinic acid] | 0.17
CN1Cc2c(Cl)cc(Cl)cc2C(c2ccc(NC(=O)N[C@@H](CCC(=O)O)C(=O)O)cc2)C1 (stereo partly drawn) [Example 36] | 0.2
CN1Cc2c(Cl)cc(Cl)cc2C(c2cccc(NC(=O)N[C@@H](CCC(=O)O)C(=O)O)c2)C1 (stereo partly drawn) [Example 37, (2S)-2-(3-(3-(6,8-dichloro-2-methyl-1,2,3,4-tetrahydroisoquinolin-4-yl)phenyl)ureido)pentanedioic acid] | 0.1
CN1Cc2c(Cl)cc(Cl)cc2C(c2ccc(NC(=O)NCP(=O)(O)O)cc2)C1 (stereo not drawn) [Example 38, (3-(4-(6,8-dichloro-2-methyl-1,2,3,4-tetrahydroisoquinolin-4-yl)phenyl)ureido)methylphosphonic acid] | 0.1

Now from value to compound:

Papp A→B at 3 h, 20 uM [×10⁻⁶ cm/s] | SMILES
0.3 | CN1Cc2c(Cl)cc(Cl)cc2C(c2ccc(S(=O)(=O)Nc3ccc(CP(=O)(O)O)cc3)cc2)C1 (stereo not drawn) [Example 13, (4-(4-(6,8-dichloro-2-methyl-1,2,3,4-tetrahydroisoquinolin-4-yl)phenylsulfonamido)phenyl)methylphosphonic acid]
0.4 | CN1Cc2c(Cl)cc(Cl)cc2C(c2ccc(S(=O)(=O)NCc3ccc(CP(=O)(O)O)cc3)cc2)C1 (stereo not drawn) [Example 14, (4-((4-(6,8-dichloro-2-methyl-1,2,3,4-tetrahydroisoquinolin-4-yl)phenylsulfonamido)methyl)phenyl) methylphosphonic acid]
< 0.02 | CN1Cc2c(Cl)cc(Cl)cc2C(c2cccc(S(=O)(=O)NCCN(CCNS(=O)(=O)c3cccc(C4CN(C)Cc5c(Cl)cc(Cl)cc54)c3)CCNS(=O)(=O)c3cccc(C4CN(C)Cc5c(Cl)cc(Cl)cc54)c3)c2)C1 (stereo not drawn) [Example 16, N,N′,N″-(2,2′,2″-nitrilotris(ethane-2,1-diyl))tris(3-(6,8-dichloro-2-methyl-1,2,3,4-tetrahydroisoquinolin-4-yl)benzenesulfonamide)]
< 0.04 | CN1Cc2c(Cl)cc(Cl)cc2C(c2ccc(S(=O)(=O)NCCCCCCCCCCCCNS(=O)(=O)c3ccc(C4CN(C)Cc5c(Cl)cc(Cl)cc54)cc3)cc2)C1 (stereo not drawn) [Example 23, N,N′-(dodecane-1,12-diyl)bis(4-(6,8-dichloro-2-methyl-1,2,3,4-tetrahydroisoquinolin-4-yl)benzenesulfonamide)]
0.03 | CN1Cc2c(Cl)cc(Cl)cc2C(c2ccc(S(=O)(=O)NCCN(CCNS(=O)(=O)c3ccc(C4CN(C)Cc5c(Cl)cc(Cl)cc54)cc3)CCNS(=O)(=O)c3ccc(C4CN(C)Cc5c(Cl)cc(Cl)cc54)cc3)cc2)C1 (stereo not drawn) [Example 24, N,N′,N″-(2,2′,2″-nitrilotris(ethane-2,1-diyl))tris(4-(6,8-dichloro-2-methyl-1,2,3,4-tetrahydroisoquinolin-4-yl)benzenesulfonamide)]
< 0.02 | CN1Cc2c(Cl)cc(Cl)cc2C(c2ccc(S(=O)(=O)NCc3ccc(CNS(=O)(=O)c4ccc(C5CN(C)Cc6c(Cl)cc(Cl)cc65)cc4)cc3)cc2)C1 (stereo not drawn) [Example 26, N,N′-(1,4-phenylenebis(methylene))bis(4-(6,8-dichloro-2-methyl-1,2,3,4-tetrahydroisoquinolin-4-yl)benzenesulfonamide)]
< 0.02 | CN1Cc2c(Cl)cc(Cl)cc2C(c2ccc(S(=O)(=O)NCCOCCOCCNS(=O)(=O)c3ccc(C4CN(C)Cc5c(Cl)cc(Cl)cc54)cc3)cc2)C1 (stereo not drawn) [Example 27, N,N′-(2,2′-(ethane-1,2-diylbis(oxy))bis(ethane-2,1-diyl))bis(4-(6,8-dichloro-2-methyl-1,2,3,4-tetrahydroisoquinolin-4-yl)benzenesulfonamide)]
0.1 | C/C(=C\c1cc(F)c(Oc2ccc(S(=O)(=O)NCCOCCOCCOCCNS(=O)(=O)c3ccc(Oc4c(F)cc(/C=C(\C)C(=O)N=C(N)N)cc4F)cc3)cc2)c(F)c1)C(=O)N=C(N)N [Example 44, N,N′-(2,2′-(2,2′-oxybis(ethane-2,1-diyl)bis(oxy))bis(ethane-2,1-diyl))bis[(E)-N-(diaminomethylene)-3-(3,5-difluoro-4-(4-sulfamoylphenoxy)phenyl)-2-methylacrylamide]]
0.9 | C/C(=C\c1cc(F)c(Oc2ccc(S(=O)(=O)NCCOCCOCCOCCn3cc(CO)nn3)cc2)c(F)c1)C(=O)N=C(N)N [Example 48, (E)-N-(diaminomethylene)-3-(3,5-difluoro-4-(4-(N-(2-(2-(2-(2-(4-(hydroxymethyl)-1H-1,2,3-triazol-1-yl)ethoxy)ethoxy)ethoxy)ethyl)sulfamoyl)phenoxy)phenyl)-2-methylacrylamide]
0.2 | C/C(=C\c1cc(F)c(Oc2ccc(S(=O)(=O)Nc3ccc(P(=O)(O)O)cc3)cc2)c(F)c1)C(=O)N=C(N)N [Example 51, (E)-4-(4-(4-(3-(diaminomethyleneamino)-2-methyl-3-oxoprop-1-enyl)-2,6-difluorophenoxy)phenylsulfonamido)phenylphosphonic acid]
1.6 | C/C(=C\c1cc(F)c(Oc2ccc(S(=O)(=O)Nc3ccc(CP(=O)(O)O)cc3)cc2)c(F)c1)C(=O)N=C(N)N [Example 53, (E)-4-(4-(4-(3-(diaminomethyleneamino)-2-methyl-3-oxoprop-1-enyl)-2,6-difluorophenoxy)phenylsulfonamido)benzylphosphonic acid]
0.5 | C/C(=C\c1cc(F)c(Oc2ccc(S(=O)(=O)NCP(=O)(O)O)cc2)c(F)c1)C(=O)N=C(N)N [Example 56, (E)-(4-(4-(3-(diaminomethyleneamino)-2-methyl-3-oxoprop-1-enyl)-2,6-difluorophenoxy)phenylsulfonamido)methylphosphonic acid]
1.65 | C/C(=C\c1cc(F)c(Oc2ccc(S(=O)(=O)N(CC(=O)O)CP(=O)(O)O)cc2)c(F)c1)C(=O)N=C(N)N [Example 57, (E)-2-(4-(4-(3-(diaminomethyleneamino)-2-methyl-3-oxoprop-1-enyl)-2,6-difluorophenoxy)-N-(phosphonomethyl)phenylsulfonamido)acetic acid]
0.2 | COCCNC(=O)NS(=O)(=O)c1ccc(Oc2c(F)cc(/C=C(\C)C(=O)N=C(N)N)cc2F)cc1 [Example 58, (E)-N-(diaminomethylene)-3-(3,5-difluoro-4-(4-(N-(2-methoxyethylcarbamoyl)sulfamoyl)phenoxy)phenyl)-2-methylacrylamide]
0.1 | C/C(=C\c1cc(F)c(Oc2ccc(S(=O)(=O)NC(CC(=O)O)C(=O)O)cc2)c(F)c1)C(=O)N=C(N)N (stereo not drawn) [Example 59, (E)-2-(4-(4-(3-(diaminomethyleneamino)-2-methyl-3-oxoprop-1-enyl)-2,6-difluorophenoxy)phenylsulfonamido)succinic acid]
